Experimental data: patent publication US20240034761A1, “REGENERATION OF MAMMALIAN TISSUES USING SYNTHETIC IMMODULINS” (priority 2022, published 2024)
Marks after values point to notes of the source that are not given here. Peptide text beside a SMILES is read from it.

Columns and labels:
recombinant CD44 protein = molecular target: T1, recombinant CD44 protein (Homo sapiens, UniProt P16070); assay: Third binding experiment: CD44 binding to peptide/holotransferrin/hyaluronan complexes; conditions: for CD44 immunoreactivity, 1.5 ug/w HMW-HA: immX3AVD + 1.5 ug HMW-HA set to 100 AU; for CD44 immunoreactivity, CONTROL: no hyaluronan, 100 ng/well CD44
T1 construct: purchased Abcam, Waltham, MA
Experimental: Effects of pH, PIP2 and size classes: Streptavidin-coated 96-well plates (G-Biosciences, St. Louis, MO) were pre-loaded with biotinylated peptides [see Example 1] at 400 ng/well, at room temperature for 60 minutes. The plate was washed with PBS buffer and then 1 ug FITC-labelled heparin or hyaluronic acid (FITC-HMW-HA) in 100 uL PBS buffer was added per well (all tests done in quadruplicate). Incubation proceeded for 90 minutes at room temperature, followed by two PBS washes. The plate was read in a standard laboratory fluorometer (488/525 nm exitation/[…]) and the counts normalized for immX3 peptide binding=100. Values statistically above background are shown in bold font. **p<0.05 versus immX3AVD.
A third binding experiment was done as described above using immX3AVD peptide with or without 10 ug/well holotransferrin (holoTf) plus either 10 ug/well LMW-HA or either 1.5 ug or 10 ug HMW-HA/well in the binding step, followed by a buffer wash step. 100 ng/well pure recombinant CD44 protein (Abcam, Waltham, MA) was then added to the indicated wells, incubated for 60 minutes at room temperature and the plate was washed with buffer. Anti-CD44 monoclonal antibody (Abcam, Waltham, MA) was added towells at 1:200, incubated for 60 minutes at room temperature and the plate was then washed and developed by secondary antibody and TMB detection as recommended by the manufacturer. CD44 immunoreactivity was expressed in arbitrary immunoreactivity units (AU), with **p<0.05 versus immx3AVD+1.5 ug HMW-HA control, which was set to=100 AU.

[1] = system: Osteoblast cell line MC3T3E1; assay: MC3T3E1 osteoblast differentiation, alkaline phosphatase; format: cell-based; conditions: peptide 0.66 uM, 5 days, immX3AVD = 100
Experimental: Yet another non-myeloid lineage was tested. Osteoblast cell line MC3T3E1 was purchased from ATCC (Manassas, VA) and grown in 96-well plates in alpha-MEM medium supplemented with 50 ug/ml ascorbic acid and 5 mM beta-glycerophosphate. Peptides were added and incubation proceeded for 5 days. Cells were washed with PBS buffer and extracts prepared using 100 uL 1X RIPA buffer (Cayman Chemical Company; Ann Arbor, MI) per well. Alkaline phosphatase was measured using 0.37 mg/ml 4-nitrophenyl phosphate in DEA buffer (both reagents purchased from Cayman Chemical Company) by measuring the slope of absorbance at 405 nm using a spectrophotometer. 10 uL of RIPA extract was used for each assay. Separately, protein concentration of extract was measured using a commercial kit. Values were corrected for protein concentration. Results are shown below (**p<0.05 vs immX3AVD=100): […]

T1 sequence (P16070 21-742, species assumed): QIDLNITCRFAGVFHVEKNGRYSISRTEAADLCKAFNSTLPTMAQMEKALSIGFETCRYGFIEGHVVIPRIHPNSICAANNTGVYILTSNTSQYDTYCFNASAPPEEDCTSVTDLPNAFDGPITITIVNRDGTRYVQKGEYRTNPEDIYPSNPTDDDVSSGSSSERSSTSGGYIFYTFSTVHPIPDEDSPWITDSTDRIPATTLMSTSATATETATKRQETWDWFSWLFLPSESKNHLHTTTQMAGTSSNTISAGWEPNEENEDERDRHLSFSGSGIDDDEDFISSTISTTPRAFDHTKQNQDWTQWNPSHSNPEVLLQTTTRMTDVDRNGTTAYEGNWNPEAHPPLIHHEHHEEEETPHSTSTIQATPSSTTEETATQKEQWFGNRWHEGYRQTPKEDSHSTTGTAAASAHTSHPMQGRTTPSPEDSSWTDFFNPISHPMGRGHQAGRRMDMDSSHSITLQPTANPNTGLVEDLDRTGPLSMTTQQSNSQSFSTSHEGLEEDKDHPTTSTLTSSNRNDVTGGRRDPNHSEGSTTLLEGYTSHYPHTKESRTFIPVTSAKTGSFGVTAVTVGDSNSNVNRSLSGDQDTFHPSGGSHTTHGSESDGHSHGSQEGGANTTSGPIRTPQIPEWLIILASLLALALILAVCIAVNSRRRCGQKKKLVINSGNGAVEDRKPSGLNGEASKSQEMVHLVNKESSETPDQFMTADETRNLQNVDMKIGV

Q: What does the source list for CC(C)[C@H](NC(=O)[C@H](C)NC(=O)[C@H](Cc1c[nH]c2ccccc12)NC(=O)[C@H](CS)NC(=O)[C@H](Cc1ccccc1)NC(=O)CNC(=O)[C@H](CCCNC(=N)N)NC(=O)[C@H](CCCCN)NC(=O)[C@H](CCCNC(=N)N)NC(=O)CNC(=O)[C@H](CCCCN)NC(=O)[C@H](CO)NC(=O)[C@@H]1CCCN1C(=O)[C@H](CCCNC(=N)N)NC(=O)[C@H](CS)NC(=O)[C@H](CCC(N)=O)NC(=O)[C@H](CCCCN)NC(=O)[C@H](CCCCN)NC(=O)[C@H](CCCCN)NC(=O)[C@H](Cc1ccc(O)cc1)NC(=O)[C@H](Cc1ccccc1)NC(=O)CNC(=O)[C@H](CCCCN)NC(=O)[C@@H](N)CCCCN)C(=O)N[C@@H](CC(=O)O)C(=O)O [immX3AVD] (H-KKGFYKKKQCRPSKGRKRGFCWAVD-OH)?
A: CD44 immunoreactivity, 10 ug/w HMW-HA (recombinant CD44 protein; pH 5.2): 105.1 ± 11.4 AU; CD44 immunoreactivity, 10 ug/w LMW-HA (recombinant CD44 protein; pH 5.2): 102.6 ± 17.9 AU; CD44 immunoreactivity, 1.5 ug/w HMW-HA (recombinant CD44 protein; pH 5.2): 100.0 ± 4.6 AU; CD44 immunoreactivity, CONTROL (recombinant CD44 protein; pH 5.2): 13.2 ± 22.0** AU; CD44 immunoreactivity, 10 ug/w HMW-HA (recombinant CD44 protein; pH 7.4): 101.1 ± 4.9 AU; CD44 immunoreactivity, 10 ug/w LMW-HA (recombinant CD44 protein; pH 7.4): 103.0 ± 19.4 AU; CD44 immunoreactivity, 1.5 ug/w HMW-HA (recombinant CD44 protein; pH 7.4): 100.0 ± 15.5 AU; CD44 immunoreactivity, CONTROL (recombinant CD44 protein; pH 7.4): 19.6 ± 13.0** AU; Alk. Phos. Activity ([1]; compound added: None): 100.0 ± 0.5; Alk. Phos. Activity ([1]; plus 2 uM Ciprofibrate): 127.2 ± 2.7**; Alk. Phos. Activity ([1]; plus 2 uM GW 3965): 59.1 ± 4.3**; Alk. Phos. Activity ([1]; plus 2 uM GW 501516): 168.7 ± 3.0**; Alk. Phos. Activity ([1]; plus 1 mM D-raffinose): 134.6 ± 4.6**; Alk. Phos. Activity ([1]; plus 1 mM L-ornithine): 159.7 ± 4.4**
